Measurements: patent US20250163072A1, “MACROCYCLIC COMPOUNDS FOR THE TREATMENT OF CANCER” (Hoffmann-La Roche Inc., priority 2021, published 2025)

Key:
KRAS G12V in SW620 = assay: pERK inhibition assay, SW620; format: cell-based, human; conditions: Homo sapiens, SW-620, SW620 cells, 4 hours incubation
Method: (§1) This assay is to measure the ability of test compounds in inhibiting the phosphorylation of ERK, the downstream signaling of KRAS G12C in NCI-H358 cells, KRAS G12D in AGS cells, and KRAS G12V in SW620. NCI-H358 (ATCC-CRL5807) cells, AGS (ATCC-CRL-1739) cells, SW620 (ATCC-CCL-227) cells were all grown and maintained using RPMI-1640 medium (Thermo Fisher Scientific) with 10% fetal bovine serum and 1% penicillin/streptomycin. On the day prior to compound addition, cells were plated in tissue culture-treated 96 well plates (Corning-3699) at a density of 30,000 cell/well, 20,000 cell/well, 30,000 cell/well for NCI-H358, AGS and SW620 respectively, and allowed for attachment overnight. Diluted compounds were then added in a final concentration of 0.5% DMSO. After 4 hours of incubation, the medium was removed, 100 μL of 4% formaldehyde was added, and the assay plates were incubated at room temperature for 20 minutes. The plates were then washed once with phosphate buffered saline (PBS), and permeabilized with 100 μL of chilled methanol for 10 minutes. Non-specific antibody binding to the plates was blocked using 50 μL 1×BSA blocking buffer (Thermo-37520, 10-fold dilution by Phosphate-Buffered Saline Tween (PBST) for at least 1 hour at room temperature. The amount of phosphor-ERK was determined using an antibody specific for phosphorylated form of ERK. Primary antibody (pERK, CST-4370, Cell Signaling Technology) was diluted 1:300 in blocking buffer, with 50 μL aliquoted to each well, and incubated overnight at 4° C. Cells were washed five times for 5 minutes with PBST. Secondary antibody (HRP-linked anti-rabbit IgG, CST-7074, Cell Signaling Technology) was diluted 1:1000 in blocking buffer, and 50 μL was added to each well and incubated 1-2 hours at room temperature. Cells were washed 5 times for 5 minutes with PBST, 100 μL TMB ELISA substrate (abcam-ab171523) were added and gently shake for 20 minutes. 50 μL stop solution (abcam-ab171529) were added, and then read the signal (OD450) by EnVision. IC50 was determined by fitting a 4-parameter sigmoidal concentration response model.

KRAS G12D in AGS cells = assay: pERK inhibition assay, AGS; format: cell-based, human; conditions: Homo sapiens, 4 hours incubation
Method: as §1

SW620 cells = assay: Cell viability assay, SW620; format: cell-based, human; conditions: Homo sapiens, SW-620, SW620, 72 hours, Cell Counting Kit-8, read-out: G12V IC50
Method: (§2) The purpose of this cellular assay was to determine the effects of test compounds on the proliferation of human cancer cell lines NCI-H358 (ATCC-CRL5807) cells, AGS (ATCC-CRL-1739) cells, SW620 (ATCC-CCL-227) over a 3-day treatment period by quantifying the amount of NADPH present at endpoint using Cell Counting Kit-8. Cells were seeded at 5,000 cells/well (NCI-H358), 2,000 cells/well (AGS) 2,000 cells/well (SW620) in 96-well assay plates (Corning-3699) and incubated overnight. On the day of the assay, diluted compounds were then added in a final concentration of 0.5% DMSO. After 72 hours incubation, a tenth of the volume of cell counting kit 8(Dnjindo-CK04) was added into each well. Read the signal (OD450 minus OD650) using EnVision after 2 hours incubation. IC50 was determined by fitting a 4-parameter sigmoidal concentration response model.

NCI-H358 cells = assay: Cell viability assay, NCI-H358; format: cell-based, human; conditions: Homo sapiens, NCI-H358, 72 hours, Cell Counting Kit-8, read-out: G12C IC50
Method: as §2

[1] = tested on: KRAS G12C in NCI-H358 cells; assay: pERK inhibition assay, NCI-H358; format: cell-based, human; conditions: Homo sapiens, 4 hours incubation
Method: as §1

AGS cells = assay: Cell viability assay, AGS; format: cell-based, human; conditions: Homo sapiens, 72 hours, Cell Counting Kit-8, read-out: G12D IC50
Method: as §2

[2] = Human hepatocytes stability assay; format: in vitro ADME; conditions: for CL_hep (Human): 1 μM compound, human hepatocytes 1×10^6 cells/mL; for Clearance Category: human hepatocytes
Method: The hepatocyte stability assay measures the rate of disappearance of a compound from incubations with cryopreserved suspension hepatocytes from human. Positive controls, including Midazolam, Raloxifene and Dextromethorphan, are included in every experiment. Incubations consist of 1 μM tested compound and suspension of human hepatocytes (1×10^6 cells/mL) in supplemented Williams' E Medium with […] and 0.5% Penicillin-streptomycin. The hepatocyte suspension was incubated with intermittent shaking 900 rpm at 37° C., in a 5% CO2 incubator. The reaction was stopped by adding methanol containing internal standard (2 μM Tolbutamide) at 2, 10, 20, 40, 60 and 120 minutes after compound addition, depletion of the parent compound was monitored by LC-MS/MS analysis.

[3] = GSH reaction rates (inherent GSH reactivity); format: in vitro ADME
Method: Therefore Strategy to minimize the GSH metabolism is very critical. Short T1/2 in inherent GSH reaction indicated high GSH reaction rate. Thus T1/2 in inherent GSH reaction assay was determined for the screening of candidates. Reference compounds and compounds of this invention potentially could form conjugation with GSH either through halogenated moieties substitution reaction or direct Michael addition reaction. This test was therefore performed to check GSH reactivity of listed compounds. For inherent GSH reactivity determination, compounds at 1 μM were incubated at 37° C. with and without 5 mM GSH for 0, 0.5, 1, 2, 4 and 6 h in 100 mM potassium phosphate buffer at pH 7.4. At the end of the designated time points, samples were quenched with acetonitrile containing 10 mM N-ethylmaleimide and an internal standard. Quenched samples were centrifuged, and supernatants were analyzed by LC-MS/MS for compound quantification.

Row | IC50 (KRAS G12V in SW620) [nM] | IC50 (KRAS G12D in AGS cells) [nM] | IC50 (SW620 cells) [nM] | IC50 (NCI-H358 cells) [nM] | IC50 [1] [nM] | IC50 (AGS cells) [nM] | Remaining at 6 hr in GSH (%) ([3]; 6 h, 1 μM, pH 7.4) | Compound | CL_hep (Human) [2] [mL/min/kg] | Clearance Category [2] | Remaining at 6 hr in GSH (%) ([3]; 1 μM compound, 5 mM GSH, 37° C., pH 7.4, 6 hr) | T1/2(hour) in GSH ([3]; 1 μM compound, 5 mM GSH, 37° C., potassium phosphate buffer pH 7.4)
1 | 102 | 199 | 255 | 16.3 | 55 | 868 |  | CO[C@@H](C)c1ncccc1-c1c2c3cc(ccc3n1CC(F)(F)F)-c1csc(n1)C[C@H](NC(=O)[C@H](C(C)C)N(C)C(=O)[C@H]1CCN(C(=O)[C@H](F)Cl)C1)C(=O)N1CCC[C@H](N1)C(=O)OCC(C)(C)C2 (atropisomer, axis not shown; (M)) [Example 22, (3S)-1-[(2R)-2-chloro-2-fluoro-acetyl]-N-[(1S)-1-[[(7S,13S)-(20M)-20-[2-[(1S)-1-methoxyethyl]-3-pyridyl]-17,17-dimethyl-8,14-dioxo-21-(2,2,2-trifluoroethyl)-15-oxa-4-thia-9,21,27,28-tetrazapentacyclo[17.5.2.12,5.19,13.022,26]octacosa-1(25),2,5(28),19,22(26),23-hexaen-7-yl]carbamoyl]-2-methyl-propyl]-N-methyl-pyrrolidine-3-carboxamide] |  |  |  | 
2 | 67 | 291 | 281 | 89 | 32 | 1240 |  | C#CC1CCN(C(=O)N(C)[C@H](C(=O)N[C@H]2Cc3cc(O)cc(c3)-c3ccc4c(c3)c(c(-c3cccnc3[C@H](C)OC)n4CC)CC(C)(C)COC(=O)[C@@H]3CCCN(N3)C2=O)C(C)C)CC1 (atropisomer, axis not shown; (M)) [Example 15, N-[(1S)-1-[[(8S,14S)-22-ethyl-4-hydroxy-(21M)-21-[2-[(1S)-1-methoxyethyl]-3-pyridyl]-18,18-dimethyl-9,15-dioxo-16-oxa-10,22,28-triazapentacyclo[18.5.2.12,6.110,14.023,27]nonacosa-1(26),2,4,6(29),20,23(27),24-heptaen-8-yl]carbamoyl]-2-methyl-propyl]-4-ethynyl-N-methyl-piperidine-1-carboxamide] |  |  |  | 
3 | 26 | 105 | 57 | 77 | 8 | 226 |  | CCn1c(-c2cccnc2[C@H](C)OC)c2c3cc(ccc31)-c1cc(O)cc(c1)C[C@H](NC(=O)[C@H](C(C)C)N(C)C(=O)[C@H]1CCN(C(=O)C(C)=O)C1)C(=O)N1CCC[C@H](N1)C(=O)OCC(C)(C)C2 (atropisomer, axis not shown; (M)) [Example 5, (3S)-N-[(1S)-1-[[(8S,14S)-22-ethyl-4-hydroxy-(21M)-21-[2-[(1S)-1-methoxyethyl]-3-pyridyl]-18,18-dimethyl-9,15-dioxo-16-oxa-10,22,28-triazapentacyclo[18.5.2.12,6.110,14.023,27]nonacosa-1(26),2,4,6(29),20,23(27),24-heptaen-8-yl]carbamoyl]-2-methyl-propyl]-N-methyl-1-(2-oxopropanoyl)pyrrolidine-3-carboxamide] |  |  |  | 
4 | > 1000 | > 10000 | > 1000 | 4 | 8 | > 10000 |  | CCn1c(-c2cccnc2[C@H](C)OC)c2c3cc(ccc31)-c1cc(O)cc(c1)C[C@H](NC(=O)[C@H](C(C)C)N(C)C(=O)C1CCN(C(=O)C#CCN3CCOCC3)C1)C(=O)N1CCC[C@H](N1)C(=O)OCC(C)(C)C2 (stereo partly shown) [RM018, reference compound] |  |  |  | 
5 | 106 | 529 | 367 | 142 | 63 | 1380 |  | C#CC1CN(C(=O)N(C)[C@H](C(=O)N[C@H]2Cc3cc(O)cc(c3)-c3ccc4c(c3)c(c(-c3cccnc3[C@H](C)OC)n4CC)CC(C)(C)COC(=O)[C@@H]3CCCN(N3)C2=O)C(C)C)C1 (atropisomer, axis not shown; (M)) [Example 14, N-[(1S)-1-[[(8S,14S)-22-ethyl-4-hydroxy-(21M)-21-[2-[(1S)-1-methoxyethyl]-3-pyridyl]-18,18-dimethyl-9,15-dioxo-16-oxa-10,22,28-triazapentacyclo[18.5.2.12,6.110,14.023,27]nonacosa-1(26),2,4,6(29),20,23(27),24-heptaen-8-yl]carbamoyl]-2-methyl-propyl]-3-ethynyl-N-methyl-azetidine-1-carboxamide] |  |  |  | 
6 | 7020 | > 10000 | 6880 | 45 | 49 | 7920 | 100 | CCn1c(-c2cccnc2COC)c2c3cc(ccc31)-c1cc(O)cc(c1)C[C@H](NC(=O)[C@H](C(C)C)N(C)C(=O)C1CN(C(=O)[C@H](F)Cl)C1)C(=O)N1CCC[C@H](N1)C(=O)OCC(C)(C)C2 [RM461-A] | 5.5 | low (CL_hep (mL/min/kg)<6.96 is low clearance) |  | 

Row | Compound | IC50 (KRAS G12V in SW620) [nM] | IC50 (KRAS G12D in AGS cells) [nM] | IC50 (SW620 cells) [nM] | IC50 (NCI-H358 cells) [nM] | IC50 [1] [nM] | IC50 (AGS cells) [nM] | Remaining at 6 hr in GSH (%) ([3]; 6 h, 1 μM, pH 7.4) | CL_hep (Human) [2] [mL/min/kg] | Clearance Category [2] | Remaining at 6 hr in GSH (%) ([3]; 1 μM compound, 5 mM GSH, 37° C., pH 7.4, 6 hr) | T1/2(hour) in GSH ([3]; 1 μM compound, 5 mM GSH, 37° C., potassium phosphate buffer pH 7.4)
7 | CO[C@@H](C)c1ncc(N2CCN(C)CC2)cc1-c1c2c3cc(ccc3n1CC(F)(F)F)-c1csc(n1)C[C@H](NC(=O)[C@H](C(C)C)N1CC[C@]3(CCN(C(=O)[C@H](F)Cl)C3)C1=O)C(=O)N1CCC[C@H](N1)C(=O)OCC(C)(C)C2 [Example 23, (2S)-2-[(5S)-7-[(2R)-2-chloro-2-fluoro-acetyl]-1-oxo-2,7-diazaspiro[4.4]nonan-2-yl]-N-[(7S,13S)-(20M)-20-[2-[(1S)-1-methoxyethyl]-5-(4-methylpiperazin-1-yl)-3-pyridyl]-17,17-dimethyl-8,14-dioxo-21-(2,2,2-trifluoroethyl)-15-oxa-4-thia-9,21,27,28-tetrazapentacyclo[17.5.2.12,5.19,13.022,26]octacosa-1(25),2,5(28),19,22(26),23-hexaen-7-yl]-3-methyl-butanamide] | 8 | 18 | 15 | < 0.6 | 2 | 3410 |  | 7.9 | medium (16.24<CL_hep (mL/min/kg)>6.96 is medium clearance) | 95 | stable (If % depletion after 6 hour incubation is less than 20%, compounds were reported as stable)
